Reference: PMC9966370, “Biological Evaluation and In Vitro Characterization of ADME Profile of In-House Pyrazolo[3,4-d]pyrimidines as Dual Tyrosine Kinase Inhibitors Active against Glioblastoma Multiforme” (Pharmaceutics, 2023)
Read-outs that look alike come from different tables or passages of the source.

Experiments:
DBTRG GBM cell line = experiment: antiproliferative activity, MTT assay, DBTRG; format: cell-based; details: Homo sapiens, 72 h treatment
Experimental: (§1) Cell-based assays were performed using four GBM cell lines, i.e., U-87, LN18, LN229, and DBTRG, cultured in Dulbecco’s modified Eagle medium (DMEM) (U-87, LN18, and LN229) or Roswell Park Memorial Institute medium (RPMI 1640) (DBTRG). Both media were implemented with 10% fetal bovine serum (FBS), 2 mM L-glutamine, and 10,000 units/mL penicillin/streptomycin at 37 °C in a 5% CO2 atmosphere. […] The final concentration of DMSO used never exceeded 0.5% v/v, and appropriate controls were always performed in each assay. […] These were cultured in DMEM supplemented with 10% FBS, 2 mM L-glutamine, and 10,000 units/mL penicillin/streptomycin at 37 °C in a 5% CO2 atmosphere. The protocol used to assess the cytotoxic effect on both healthy cell lines was the same described above for the antiproliferative assay. For both the antiproliferative and the cytotoxic assays, 3-(4,5-dimethylthiazol-2-yl)-2,5-diphenyltetrazolium bromide (MTT) was used to assess cell viability as previously described. Briefly, 150 μL of MTT (5 mg/mL in FBS-free culture medium) was added to each well, and the plates incubated for 4 h in a 5% CO2 atmosphere at 37 °C. Afterward, formazan violet crystals were solubilized in 150 μL of isopropanol, and the absorbance was quantified at 570 nm using a Multiskan SkyHigh Microplate Spectrophotometer (ThermoFisher, Waltham, MA, USA). Cell viability was expressed as a percentage of DMSO-treated cells (controls), taken as 100%. […] To support MTT data, cytotoxicity assays was always paralleled by a careful observation of cells under a phase-contrast light microscope, as described in USP 28 (United States Pharmacopeia edition 2005) as an alternative method. This analysis was performed by an expert operator blind to the treatment, and exemplificative photos representing the effects of compound 5 on LN229 and DBTRG cells are reported in Figures S2 and S3 (Supplementary Materials).

U-87 GBM cell line [1] = experiment: antiproliferative activity, MTT assay, U-87; format: cell-based; details: Homo sapiens, 72 h treatment
Experimental: as §1

LN229 GBM cell line = experiment: antiproliferative activity, MTT assay, LN229; format: cell-based; details: Homo sapiens, LN-229, 72 h treatment
Experimental: as §1

PAMPA, GI permeability = format: in vitro ADME; details: RT; for GI membrane retention (MR%): 5 h, pH 7.4; for Papp at 5 h, 500 µM: pH 7.4, PAMPA
Experimental: (§2) UV/LC–MS chromatographic analyses were carried out using an Agilent 1100 LC/MSD VL system (G1946C) purchased from Agilent Technologies (Palo Alto, CA, USA). […] The analysis began with 5% B (t = 0–1 min), increased to 95% (t = 1–10 min), maintained at 95% (t = 10–19 min), and finally returned to 5% […]. The analyses were performed at a flow rate of 0.6 mL/min, UV detection was monitored at 254 nm, and spectra were acquired over the scan range of m/z 100–1000 in both positive and negative modes.
(§3) The DMSO stock of each compound was diluted with phosphate buffer (PBS 25 mM, pH 7.4) to a final concentration of 500 µM in order to obtain the “donor”. For GI and BBB permeability, filters were coated with 10 µL of 1% w/v dodecane phosphatidylcholine solution or 5 µL of 10% w/v CHCl3/dodecane brain polar lipid solution. The donor (150 µL) was poured over the artificial membranes on the filter plate. DMSO/PBS (300 µL, 1:1 v/v) was then added to the acceptor wells. After assembling the sandwich plates, the experiments were run for 5 h at room temperature (RT). Lastly, the amount of compound passed though the artificial membranes was determined using the UV/LC–MS method described above. Apparent permeability (Papp) and membrane retention (MR%) were determined as previously described.

LN18 GBM cell line = experiment: antiproliferative activity, MTT assay, LN18; format: cell-based; details: Homo sapiens, LN-18, 72 h treatment
Experimental: as §1

PAMPA, BBB permeability = format: in vitro ADME; details: RT; for BBB membrane retention (MR%): 5 h, pH 7.4; for Papp at 5 h, 500 µM: pH 7.4, PAMPA
Experimental: as §2, §3

[2] = metabolic stability assay in human liver microsomes; format: in vitro ADME; details: HLM 0.2 mg/mL, NADPH, 1 h, 37 °C
Experimental: as §2
Each DMSO compound solution was incubated for 1 h at 37 °C in the presence of 500 µL of PBS (25 mM, pH 7.4), human liver microsomal (HLM) proteins (0.2 mg/mL), and 10 mM NADPH solution in MgCl2 (48 mM). The reactions were stopped with 1.0 mL of cold ACN. The samples were centrifuged (4000 rpm for 10 min), and the supernatants were collected, dried under N2 flow, and suspended in 100 µL of methanol (MeOH). Parent drugs and metabolites were determined using the previously described HPLC/UV–MS method. The percentage metabolic stability was calculated by comparing the metabolized and unmetabolized compounds.

c-Src = molecular target: T1, c-Src (Homo sapiens, UniProt P12931); experiment: cell-free enzymatic assay (ADP-Glo), c-Src; format: biochemical; details: 100 µM ATP, 500 µM Src-peptide; read-out: c-Src Ki
T1 construct: purchased Promega (Madison, WI, USA)
T1 sequence (P12931 whole entry): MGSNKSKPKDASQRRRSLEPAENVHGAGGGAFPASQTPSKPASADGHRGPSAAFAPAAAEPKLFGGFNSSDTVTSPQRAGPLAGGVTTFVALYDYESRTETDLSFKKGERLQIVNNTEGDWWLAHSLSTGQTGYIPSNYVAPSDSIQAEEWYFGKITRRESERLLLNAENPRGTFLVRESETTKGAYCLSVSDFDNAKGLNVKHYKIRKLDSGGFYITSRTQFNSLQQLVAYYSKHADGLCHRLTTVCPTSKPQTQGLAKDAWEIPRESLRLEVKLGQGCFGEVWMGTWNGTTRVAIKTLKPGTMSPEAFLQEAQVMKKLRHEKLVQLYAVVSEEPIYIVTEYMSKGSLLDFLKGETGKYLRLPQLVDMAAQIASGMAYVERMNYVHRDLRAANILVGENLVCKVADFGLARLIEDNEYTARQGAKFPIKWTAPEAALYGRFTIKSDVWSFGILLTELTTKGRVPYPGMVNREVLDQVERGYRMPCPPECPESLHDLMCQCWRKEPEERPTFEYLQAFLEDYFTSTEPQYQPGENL
Experimental: The reactions were carried out in accordance with the manufacturer’s instructions, with minor modifications. The experiments were run using all substrates at least twice the concentration of apparent Km. […] All reactions were run out at 30 °C for 10 min with 10–50 ng of enzyme and 10 µL of 10% DMSO. Protein low-binding tubes were used to prevent peptide adsorption onto the plastic surface. To detect kinase activity, the ADP-Glo Kinase Assay (Promega, Madison, WI, USA) was used according to the manufacturer’s protocol. Into white 384-well plates, reactions were stopped for 50 min at RT by adding 10 µL of ADP-Glo Reagent (Promega, Madison, WI, USA). After 30 min, 20 µL of Detection Reagent (Promega, Madison, WI, USA) was added, and the reaction was read using a GloMax Discover microplate reader (Promega, Madison, WI, USA). […] Compounds analyzed were considered to act as ATP-competitive inhibitors.

LN229 cells [3] = experiment: T-scratch assay (cell migration); format: cell-based, human; details: for wound closure: after 72 h; for wound left opened: all timepoints (24–48–72 h)
Experimental: The scratched area was observed and photographed at 10× magnification after 0–24–48–72 h (see Figure S5, Supplementary Materials).

keratinocytes HaCaT = experiment: cytotoxicity on nontumoral healthy cells, MTT assay, HaCaT; format: cell-based, human; details: 72 h treatment
Experimental: (§4) The protocol used to assess the cytotoxic effect on both healthy cell lines was the same described above for the antiproliferative assay. For both the antiproliferative and the cytotoxic assays, 3-(4,5-dimethylthiazol-2-yl)-2,5-diphenyltetrazolium bromide (MTT) was used to assess cell viability as previously described [20]. […] Afterward, formazan violet crystals were solubilized in 150 μL of isopropanol, and the absorbance was quantified at 570 nm using a Multiskan SkyHigh Microplate Spectrophotometer (ThermoFisher, Waltham, MA, USA). Cell viability was expressed as a percentage of DMSO-treated cells (controls), taken as 100%.

[4] = as above; format: cell-based, human; details: human, HaCaT keratinocytes, 72 h treatment
Experimental: as §4

LN229 cells [5] = experiment: reversible/irreversible effect on LN229 cell death (MTT); format: cell-based, human; details: for further decrease in cell viability: 24 h treatment followed by 48 h without compound, vs 24 h
DBTRG cells = experiment: cell-cycle analysis by flow cytometry, DBTRG; format: cell-based, human; details: 72 h at IC50 (8.5 µM)
fibroblasts FIBRO 2-93 = experiment: cytotoxicity on nontumoral healthy cells, MTT assay, FIBRO 2-93; format: cell-based, human
Experimental: as §4

[6] = as above; format: cell-based, human; details: human, FIBRO 2-93 healthy fibroblasts, 72 h treatment, MTT
Experimental: as §4

LN229 cells [7] = experiment: cell-cycle analysis by flow cytometry, LN229; format: cell-based, human; details: LN229, 72 h at IC50 (6.9 µM)
[8] = HLM, previously published, cited from earlier work
U-87 GBM cell line [9] = details: previously published; cited from earlier work

SMILES	IC50 (DBTRG GBM cell line) [µM]	melting point [°C]	IC50 (U-87 GBM cell line [1]) [µM]	IC50 (LN229 GBM cell line) [µM]	GI membrane retention (MR%) (PAMPA, GI permeability) [%]	Papp at 5 h, 500 µM (PAMPA, GI permeability) [×10⁻⁶ cm/s]	IC50 (LN18 GBM cell line) [µM]	BBB membrane retention (MR%) (PAMPA, BBB permeability) [%]	Papp at 5 h, 500 µM (PAMPA, BBB permeability) [×10⁻⁶ cm/s]	Metabolic Stability [2] [%]	Ki (c-Src) [µM]	other results
ClC(Cn1ncc2c(NC3CC3)ncnc21)c1ccccc1 (centres unmarked) [Compound 2]	> 100	194 to 195	> 100	> 100	34.7	6.46	49.4 ± 2.8	55.0	4.96	–	–	–
Fc1ccc(C(Cl)Cn2ncc3c(NCc4ccccc4F)ncnc32)cc1 (centres unmarked) [Compound 6]	20.1 ± 1.8	–	32.4 ± 2.7	33.8 ± 2.3	10.1	≥ 10	11.7 ± 1.5	4.4	≥ 10	69.9	0.07 ± 0.01	–
Fc1ccc(C(Cl)Cn2ncc3c(NCc4ccccc4)ncnc32)cc1 (centres unmarked) [Compound 5]	8.5 ± 1.4	143 to 144	6.8 ± 0.3	6.9 ± 0.5	9.2	≥ 10	10.8 ± 1.4	5.6	≥ 10	84.2	3.14 ± 0.38	wound closure (LN229 cells [3]; 0.25 µM): ~60%; wound closure (LN229 cells [3]; 0.5 µM): ~60%; wound left opened (LN229 cells [3]; 2.5 µM): more than 80%; wound left opened (LN229 cells [3]; 5 µM): more than 80%; CC50 (keratinocytes HaCaT): 126 ± 6.4 µM; CC50 at 72 h [4]: > 90 µM; further decrease in cell viability (LN229 cells [5]; 10 µM): ~ −30%; further decrease in cell viability (LN229 cells [5]; 100 µM): ~ −30%; reversibility of cytotoxic effect (LN229 cells [5]; 24 h treatment, 48 h drug-free medium): irreversible cytotoxic effect; change in cells in G2/M phase vs control (DBTRG cells): +38.1%; change in cells in sub G0/G1 area vs control (DBTRG cells): +15.6%; CC50 (fibroblasts FIBRO 2-93; 72 h treatment, MTT): 91.7 ± 5.3 µM; CC50 times higher than IC50 (fibroblasts FIBRO 2-93; CC50 on FIBRO 2-93 and HaCaT vs IC50 on GBM cells): 10 times; CC50 at 72 h [6]: > 90 µM; change in cells in G0/G1 phase vs control (LN229 cells [7]): −32.4%; change in cells in sub G0/G1 phase vs control (LN229 cells [7]): +32.1%; percentage of cells in the S and G2/M phases vs control (LN229 cells [7]): No significant differences
CSc1nc(NCCc2ccccc2)c2cnn(CC(Cl)c3ccccc3)c2n1 (centres unmarked) [Compound 8]	31.2 ± 2.5	–	37.9 ± 3.9	26.1 ± 2.8	42.7	3.2	5.9 ± 1.1	18.3	5.96	–	–	–
Fc1cccc(CNc2ncnc3c2cnn3CCc2ccccc2)c1 [Compound 11]	69.2 ± 3.9	113 to 114	56.9 ± 3.3	58.4 ± 3	6.7	≥ 10	34.1 ± 2.9	5.2	≥ 10	–	–	–
ClC(Cn1ncc2c(Nc3ccccc3)ncnc21)c1ccc(Br)cc1 (centres unmarked) [Compound 12]	> 100	–	–	> 100	–	–	> 100	–	–	–	–	Metabolic Stability [8]: ≥ 90%; IC50 (U-87 GBM cell line [9]): 14 ± 1.9 µM
Fc1ccc(CNc2ncnc3c2cnn3CC(Cl)c2ccccc2)cc1 (centres unmarked) [Compound 4]	68.5 ± 3.8	161 to 162	29.8 ± 2.5	> 100	7.8	≥ 10	9 ± 1.2	2.1	≥ 10	–	–	–
Fc1ccccc1CNc1ncnc2c1cnn2CC(Cl)c1ccccc1 (centres unmarked) [Compound 3]	15.1 ± 2.1	–	40.2 ± 3.6	29.2 ± 2.6	7.3	≥ 10	27.5 ± 2.1	4.8	≥ 10	80.4	–	–
Fc1ccc(CNc2ncnc3c2cnn3CC(Cl)c2ccc(Cl)cc2)cc1 (centres unmarked) [Compound 7]	14.6 ± 0.9	–	22.7 ± 2.3	7.1 ± 1.1	–	–	3.9 ± 0.6	4.4	≥ 10	–	0.8 ± 0.09	CC50 at 72 h [4]: 37.8 ± 4.9 µM; Metabolite Formation M1 ([8]; M1 = M − HCl + O): 4%; Metabolite Formation M3 ([8]; M3 = M—group bearing NH moiety in R2): 2%; CC50 at 72 h [6]: 28.6 ± 3.7 µM
